Key:
[1] = cited from earlier work
[2] = phase I clinical studies; cited from earlier work
[3] = in vivo; cited from earlier work
[4] = system: HXGC3 human colon adenocarcinoma xenograft; test: percent inhibition of tumor growth and mortality in mice bearing HXGC3 human colon adenocarcinoma xenografts, oral; format: in vivo; conditions: daily for 10 days
Text: (§1) Two of the tumor models used for showing the antineoplastic activity of the sulfonylurea of this invention were the human colon xenografts, HXGC3 and VRC5. J. A. Houghton and D. M. Taylor, British Journal of Cancer, 37:213-223 (1978). These tumors were obtained from St. Jude's Children's Research Hospital and have been widely used as human tumor models.
(§2) First passage tumors were stored in liquid nitrogen, using standard techniques. The transplanted tumor was reestablished from the Tumor Bank every six months or as needed. The tumor was maintained by serial passage twice weekly in nude mice.
(§3) In the procedures utilized here, the tumor was removed from passage animals and minced into 1- to 3-mm cubic fragments using sterile techniques. Tumor pieces were checked for sterility using both Antibiotic medium 1 and Brain Heart Infusion (Difco, Detroit, Mi.). The tumor pieces were implanted into the recipient CDl Nu/Nu mice subcutaneously in an axillary site by trochar.
(§4) Drug therapy on the appropriate schedule was initiated seven days after tumor implantation. The compound being tested was mixed with 2.5% Emulphor EL620 from GAF Corporation (1:40 dilution in 0.9% saline). The total dosage volume for each administration was 0.5 mL. All animals were weighed at the beginning and end of administration of the subject compounds. Food and water were provided ad libitum.
(§5) Each control group and each dosage level of the treated groups consisted of 10 mice selected at random from the pool of implanted animals. The formulations were administered orally by gavage with the use of an 18-gauge needle. Compounds were dosed daily for 10 days.
(§6) The tumor was measured five days after treatment ended with two dimensional measurements (width and length) of the tumor taken using digital electronic calipers interfaced to a microcomputer. J. F. Worzalla, et al., Investigational New Drugs, 8:241-251 (1990). Tumor weights were calculated from these measurements using the following formula:
(§7) Tumor weight (mg)=[tumor length (mm)×[tumor width (mm)]^2 ]
(§8) At least one control group of an equal number of mice was treated with the same volume of 2.5% Emulphor only. The percent inhibition is determined by subtracting the ratio of the mean tumor size of the test group relative to the control group from one and multiplying the result by 100.
(§9) The results of several experiments in mice bearing the HXGC3 and VRC5 human colon adenocarcinomas when the instant compounds were administered orally are provided in Table I. In the Table, column 1 describes the particular human tumor xenograft being studied; column 2 gives the dosage level of the compound of Formula I in milligrams per kilogram of body weight; column 3 describes the percent inhibition of tumor growth; and column 4 tallies the number of mice which died during the course of the experiment relative to the total number of animals in the group.

[5] = system: VRC5 human colon adenocarcinoma xenograft; test: percent inhibition of tumor growth and mortality in mice bearing VRC5 human colon adenocarcinoma xenografts, oral; format: in vivo; conditions: daily for 10 days
Text: as §1, §2, §3, §4, §5, §6, §7, §8, §9

[6] = system: transplanted human tumors; test: activity against transplanted human tumors in mice bearing different xenograft tumors; format: in vivo
Text: as §1

[7] = toxicological study in male Fischer 344 rats, morphological, hematological and pathological studies; format: in vivo, rat (male Fischer 344); conditions: rat, 65 to 1000 mg/kg, oral gavage, daily for 14 days
Description: For these experiments thirty male Fischer 344 rats were administered varying dosages of a formulation containing the compound of Formula I. These formulations contained between 65 and 1000 mg of the active ingredient per kilogram of body weight of the rat, in combination with a suitable excipient, usually containing 10% acacia. The compounds were administered orally by gavage. The compounds were dosed daily for 14 days. All animals were weighed at the beginning and end of administration of the subject compounds. Food and water were provided ad libitum.
Upon completion of the testing regimen, morphological and hematological studies were performed.

O=C(Nc1ccc(Cl)cc1)NS(=O)(=O)c1ccc2c(c1)CCC2 [sulofenur, N-(indan-5-sulfonyl)-N'-(4-chlorophenyl)urea]
main urinary metabolites ([1]; animal trials, urine): mono-hydroxy- and mono-ketoindanyl metabolites
adsorption and metabolism ([1]; mice, rats, dogs, and monkeys): good adsorption and extensive metabolism
major metabolites in patients [2]: 1-hydroxy- and 1-ketoindansulfonylureas
dose-limiting toxicity [3]: hemolytic anemia

O=C(Nc1ccc(Cl)c(Cl)c1)NS(=O)(=O)c1ccc2c(c1)CCO2 [compound of Formula I, N-[[(3,4-dichlorophenyl)amino]carbonyl]-2,3-dihydrobenzofuran-5-sulfonamide]
Percent Inhibition of tumor growth ([4]; 150 mg/kg): 81%
Toxic/Total (mice which died relative to total number in group) ([4]; 150 mg/kg): 0/10
Percent Inhibition of tumor growth ([4]; 300 mg/kg): 98%
Toxic/Total (mice which died relative to total number in group) ([4]; 300 mg/kg): 0/10
Percent Inhibition of tumor growth ([4]; 600 mg/kg): 98%
Toxic/Total (mice which died relative to total number in group) ([4]; 600 mg/kg): 0/10
Percent Inhibition of tumor growth ([4]; 1200 mg/kg): 99%
Toxic/Total (mice which died relative to total number in group) ([4]; 1200 mg/kg): 0/10
Percent Inhibition of tumor growth ([5]; 150 mg/kg): 97%
Toxic/Total (mice which died relative to total number in group) ([5]; 150 mg/kg): 0/10
Percent Inhibition of tumor growth ([5]; 300 mg/kg): 98%
Toxic/Total (mice which died relative to total number in group) ([5]; 300 mg/kg): 0/10
Percent Inhibition of tumor growth ([5]; 600 mg/kg): 100%
Toxic/Total (mice which died relative to total number in group) ([5]; 600 mg/kg): 0/10
Percent Inhibition of tumor growth ([5]; 1200 mg/kg): 100%
Toxic/Total (mice which died relative to total number in group) ([5]; 1200 mg/kg): 0/10
therapeutic index ([6]; in vivo): high therapeutic index
activity against transplanted human tumors in vivo ([6]; mice bearing different xenograft tumors): active against transplanted human tumors in vivo
hemolytic anemia [7]: absence of hemolytic anemia
pathological tissue effects [7]: effectiveness against tissues with a high mitotic index, including lymph nodes, thymus, gut, testis, and bone marrow
unexpected tissue changes [7]: Unexpected tissue changes were not observed
